Test results taken from PubChem BioAssay AID1259332 (Broad Institute, 2017).
Activity calls are given as the source filed them. No rule for the calls is given here. Starred links: 1 amine or outer side, 2 acyl side, 3 side chain; linkers in the order of their positions; H or OH if unused. Positions of bridges follow the written chain, without caps; N, C: chain ends. Non-standard residues stand in square brackets, D forms with d. Residues, ends and D or L forms follow the SMILES beside them. Chains are numbered I, II in the order given. Actinocin(9to1) = Cc1c2oc3c(C)ccc(C(=O)[*:1])c3nc-2c(C(=O)[*:2])c(N)c1=O; NMeV = CN[CH](C(=O)O)C(C)C; Sar = CNCC(=O)O

Test system: B cell line, CD40 signaling inhibition reporter
Test: CD40 pathway inhibition in B cells – B cell lineage, dose response (AID 1259332);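 also: cells stimulated with CD40 ligand tCD40L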

SMILES	AC50
CCN1C(=O)C(CC(=O)Nc2ccc(F)cc2)N(Cc2ccco2)C1=S (stereo unspecified)	5.03 µM
O=C(Nc1ccc2c(c1)OCCO2)C1CCCC1	5.46 µM
C[C@@H]1CN([C@@H](C)CO)C(=O)c2ccccc2-c2ccccc2CO[C@H]1CN(C)Cc1ccccc1C(F)(F)F	8.01 µM
COc1ccc2cc(-c3cc(C(=O)O)c4ccccc4n3)ccc2c1	6.11 µM
O=C(C#Cc1ccccc1)c1ccccc1	6.37 µM
c1ccc(-c2nc(-c3ccccn3)no2)cc1	3.98 µM
Cc1ccc(S(=O)(=O)N2CCCC2CNC(=O)c2ccc3c(c2)OCO3)cc1 (stereo unspecified)	3.91 µM
CC(=O)OC1CC2(O)C3CCC4CC(O)CCC4(C)C3CCC2(C)C1C1=CC(=O)OC1 (stereo unspecified)	1.12 µM
c1ccc(-c2nnc(-c3ccccn3)nn2)nc1	10.5 µM
O=C1NC2c3c(Cl)sc(Cl)c3C(=O)C2O1 (stereo unspecified)	7.36 µM
O=C(COC(=O)c1ccccc1C(=O)c1ccc(Cl)c([N+](=O)[O-])c1)NC1CC1	1.62 µM
C[n+]1c2n(c3ccccc31)N=C(c1ccc(-c3ccccc3)cc1)CS2	1.21 µM
Cc1csc(NC(=O)c2ccc(N3CCCC3=O)cc2)n1	4.3 µM
CC1=C(O)C(=O)C=C2C1=CC=C1C2(C)CCC2(C)C3CC(C)(C(=O)O)CCC3(C)CCC12C (stereo unspecified)	0.888 µM
CN1C(=O)/C(=N\OC(=O)c2cccc3ccccc23)c2ccccc21	1.21 µM
COc1ccc(/C=C\c2nc(=O)c3ccccc3o2)cc1	7.67 µM
CC(=O)O[C@H]1C[C@H](O[C@H]2[C@@H](O)C[C@H](O[C@H]3[C@@H](O)C[C@H](O[C@H]4CC[C@@]5(C)C(CCC6C5C[C@@H](O)[C@]5(C)[C@@H](C7=CC(=O)OC7)CC[C@]65O)C4)O[C@@H]3C)O[C@@H]2C)O[C@H](C)[C@H]1O[C@@H]1O[C@H](CO)[C@@H](O)[C@H](O)[C@H]1O (stereo partly specified)	0.909 µM
CC1OC(OC2CC(O)C3(CO)C4C(O)CC5(C)C(C6=CC(=O)OC6)CCC5(O)C4CCC3(O)C2)C(O)C(O)C1O (stereo unspecified)	0.405 µM
C[C@@H]1CN([C@H](C)CO)C(=O)c2c(c3ccccc3n2C)-c2ccccc2CO[C@H]1CN(C)C(=O)Nc1cccc(Cl)c1Cl	7.74 µM
COc1ccc2c3c(n(C)c2c1)[C@H](CO)N(C(=O)Nc1ccc(F)cc1)CC31CCN(C(=O)Nc2ccc(F)cc2F)CC1	> 7 µM (inactive)
Cc1ccc(CN2CC(C(=O)Nc3ncc(C)s3)CC2=O)cc1 (stereo unspecified)	4.99 µM

SMILES	AC50
C[C@H]1CN([C@@H](C)CO)C(=O)c2c(c3ccccc3n2C)-c2ccccc2CO[C@@H]1CN(C)S(=O)(=O)c1ccc([N+](=O)[O-])cc1	> 20 µM (inactive)
CC(=O)O[C@@H]1C[C@@]2(C)[C@H](c3ccoc3)C[C@H]3O[C@]32[C@]2(C)C(=O)C(=O)C3C(C)(C)C(=O)C=C[C@]3(C)C12 (stereo partly specified)	1.22 µM
COc1c(-c2coc3cc4c(cc3c2=O)CC(O)C(C)(C)O4)ccc2c1C=CC(C)(C)O2 (stereo unspecified)	> 20 µM (inactive)
COc1ccc2c(c1)c1ncn(Cc3ccccn3)c(=O)c1n2C	> 20 µM (inactive)
COc1ccc(CC2C(=O)NC(C)C(=O)N(C)C3Cc4ccc(cc4)Oc4cc(ccc4O)CC(C(=O)NC(C)C(=O)NC(C)C(=O)N2C)N(C)C3=O)cc1 (stereo unspecified)	0.00631 µM
Cc1cc(C)nc(Sc2ncnc(N)c2[N+](=O)[O-])n1	2.63 µM
CC(=O)OC(C)(C)/C=C/C(=O)C(C)(O)C1C(O)CC2(C)C3CC=C4C(CC(O)C(=O)C4(C)C)C3(C)C(=O)CC12C (stereo unspecified)	0.124 µM
COc1cc(/C=N/n2cnnc2)ccc1OC(=O)c1ccncc1	3.6 µM
CO[C@H](CN(C)Cc1cc(F)ccc1F)[C@H](C)CN(C(=O)Nc1ccc(C(F)(F)F)cc1)[C@H](C)CO	8.88 µM
c1ccc2sc(-c3ccc4c(c3)OCO4)nc2c1	8.5 µM
COc1ccc(CN(CCC(c2ccccc2)c2ccc(OC(C)C)cc2)C(=O)CCl)cc1OC (stereo unspecified)	1.68 µM
N#Cc1c(Br)n(C2OC(CO)C(O)C2O)c2ncnc(N)c12 (stereo unspecified)	1.74 µM
O=C(NC(=S)/C(=C1\CCCCCN1)[N+](=O)[O-])c1ccccc1	3.07 µM
CC1OC(CC(=O)O)CC2=C1C(=O)c1c(O)cccc1C2=O (stereo unspecified)	0.204 µM
c1cc(-c2cnn3cc(-c4ccc(OCCN5CCCCC5)cc4)cnc23)ccn1	2.7 µM
Nc1nc(=O)c2ccccc2s1	8.69 µM
O=C(Nc1ccc(C(F)(F)F)cc1)N1C[C@@H]2N[C@H](C1)C2c1ccc(-c2ccccc2)cc1 (stereo partly specified)	7.26 µM
O=C(/C=C/c1ccccc1)CC(O)(c1ccccc1)C(F)(F)C(F)F (stereo unspecified)	6.39 µM
Cc1cc(C(=O)COC(=O)c2ccco2)c(C)n1Cc1ccco1	0.11 µM
Fc1ccccc1CNCCC(Cc1ccccc1)c1ccc2c(c1)OCO2 (stereo unspecified)	5.98 µM
CCCNC(=O)N1[C@@H](C#N)[C@H](c2ccc(-c3cccc(OC)c3)cc2)[C@@H]1CO	11 µM

SMILES	AC50
CCCNC(=O)N1[C@H](C#N)[C@H](c2ccc(C3=CCCCC3)cc2)[C@@H]1CO	> 20 µM (inactive)
CC12CCC3C(CCC4(O)CC(O)CCC34C=NO)C1(O)CCC2C1=COC(=O)C1 (stereo unspecified)	0.586 µM
C[C@@H]1CN([C@@H](C)CO)C(=O)c2c(c3ccccc3n2C)-c2ccccc2CO[C@@H]1CN(C)C(=O)c1cc(Cl)cc(Cl)c1	> 20 µM (inactive)
CC(C)OC(=O)c1cn(Cc2c(F)cccc2F)c2sc(-c3ccc(NC(=O)C(C)C)cc3)c(CN(C)Cc3ccccc3)c2c1=O	> 20 µM (inactive)
O=C(c1ccc(F)cc1)N1C[C@@H]2N[C@H](C1)C2c1ccc(/C=C/c2ccccc2)cc1 (stereo partly specified)	4.68 µM
CC[C@@]1(O)C(=O)OCc2c1cc1n(c2=O)Cc2cc3cc(O)ccc3nc2-1	1.33 µM
CN(C)c1ccc(C=c2c3cc(O)ccc3n3c2cc(-c2ccccc2)[n+]3C)cc1	3.43 µM
CC(=O)NCCCC(=O)NC(CCC(=O)OCc1ccccc1)C(=O)OCc1ccccc1 (stereo unspecified)	> 20 µM (inactive)
C=C1CC(Cn2cc(Br)c(=O)[nH]c2=O)(c2ccc(-c3ccccc3)cc2)OC1=O (stereo unspecified)	1.07 µM
C[C@@H]1O[C@@H](O[C@H]2C[C@@H](O)[C@]3(CO)[C@H]4[C@H](O)C[C@]5(C)[C@@H](C6COC(=O)C6)CC[C@]5(O)[C@@H]4CC[C@]3(O)C2)[C@H](O)[C@H](O)[C@H]1O (stereo partly specified)	2.55 µM
O=C(Cn1ncc(Cl)c(Cl)c1=O)NC1CCCCC1	4.96 µM
CC1CCCC=CC2CC(OC(=O)CN(C)C)CC2C(O)C=CC(=O)O1 (stereo unspecified)	1.77 µM
Cc1cc(C)cc(N2C(=O)CC(Sc3nnnn3-c3ccccc3)C2=O)c1 (stereo unspecified)	0.675 µM
Cc1c2oc3c(C)ccc(C(=O)OC(C)C4NC(=O)C(C(C)C)N(C)C(=O)CN(C)C(=O)C5CCCN5C(=O)C(C(C)C)NC4=O)c3nc-2c(C(=O)OC(C)C2NC(=O)C(C(C)C)N(C)C(=O)CN(C)C(=O)C3CCCN3C(=O)C(C(C)C)NC2=O)c(N)c1=O (stereo unspecified) (I: cyclo([Sar][NMeV]TVP) / II: cyclo([Sar][NMeV]TVP); linker I:3-II:3 via Actinocin(9to1); configuration not given here)	0.0309 µM
C[C@@H]1CCCCO[C@@H](CN(C)Cc2ccc(Cl)c(Cl)c2)[C@H](C)CN([C@H](C)CO)C(=O)c2cc(NS(=O)(=O)c3cccs3)ccc2O1	7.26 µM
COc1ccc(C#Cc2ccc([C@H]3[C@H]4CN(C(=O)c5ccncc5)CCCCN4[C@H]3CO)cc2)cc1	11.2 µM
O=C(C1CC1)N1C[C@@H]2N[C@H](C1)C2c1ccc(-c2cccc(F)c2)cc1 (stereo partly specified)	6.91 µM
C[C@@H]1CN([C@H](C)CO)C(=O)c2ccccc2-c2ccccc2CO[C@@H]1CN(C)Cc1ccccc1C(F)(F)F	9.99 µM
CC(C)(C)CC(C)(C)c1ccc(OCCOCC[N+](C)(C)Cc2ccccc2)cc1	1.62 µM
